# Assay results as given in BindingDB's records for doi:10.1124/mol.58.6.1375 (University of Alabama At Birmingham, 2000).
# Target: T1, Gamma-aminobutyric acid receptor subunit rho-3 (Homo sapiens, UniProt A8MPY1)
# T1 sequence (A8MPY1 whole entry): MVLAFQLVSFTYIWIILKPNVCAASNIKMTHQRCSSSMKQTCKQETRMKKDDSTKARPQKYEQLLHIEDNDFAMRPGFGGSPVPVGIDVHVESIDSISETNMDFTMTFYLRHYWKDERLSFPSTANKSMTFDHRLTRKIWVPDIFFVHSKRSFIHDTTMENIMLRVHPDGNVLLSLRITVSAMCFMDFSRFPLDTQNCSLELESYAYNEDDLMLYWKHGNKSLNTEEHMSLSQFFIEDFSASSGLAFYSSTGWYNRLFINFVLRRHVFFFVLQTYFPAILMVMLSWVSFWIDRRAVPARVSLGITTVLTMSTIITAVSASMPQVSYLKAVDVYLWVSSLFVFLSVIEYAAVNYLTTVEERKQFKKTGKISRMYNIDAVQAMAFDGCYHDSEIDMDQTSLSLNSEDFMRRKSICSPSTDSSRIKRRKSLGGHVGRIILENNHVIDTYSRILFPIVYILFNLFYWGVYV
row,Ki,SMILES
1,> 10000 nM,"O=C(O)C1=CCNCC1 [1,2,3,6-Tetrahydro-pyridine-4-carboxylic acid]"
2,580 nM,"NCCCC(=O)O [4-amino-n-[2,3-3H]butyric acid]"
3,360 nM,N[C@@H]1C(=O)N2C(C(=O)O)=C(CSc3cnn[nH]3)CS[C@H]12 [CAS_37539-03-0]

row,SMILES,Ki
1,NCc1cc(=O)[nH]o1,460 nM
2,O=C(O)Cc1c[nH]cn1 [1H-imidazol-4-ylacetic acid],150 nM
